The text below walks through data of ChEMBL document CHEMBL4354847, “Congenetic Hybrids Derived from Dearomatized Isoprenylated Acylphloroglucinol with Opposite Effects on Cav3.1 Low Voltage-Gated Ca2+ Channel” (J Med Chem, 2020).

What all share (assay type): cell-based
Experiment [1] has as its target T-type calcium channel alpha 1G subunit (Mus musculus) (UniProt Q27YN9). Nature of the experiment: (§1) Antagonist activity at mouse Cav3.1 expressed in HEK293T cells assessed as inhibition of current amplitude at holding potential of -100 mV by whole cell electrophysiological method.
Experiment [2] has as its target T1, T-type calcium channel alpha 1G subunit (Mus musculus, UniProt Q27YN9). The experiment is described as §1.
The target in experiment [3] is T-type calcium channel alpha 1G subunit (Mus musculus) (UniProt Q27YN9). Nature of the experiment: Antagonist activity at mouse Cav3.1 expressed in HEK293T cells assessed as inhibition of current amplitude at 10 uM at holding potential of -100 mV incubated prior to compound washout by whole cell electrophysiological method.
Experiment [4] has the same target. In words: Antagonist activity at mouse Cav3.1 expressed in HEK293T cells assessed as inhibition of current amplitude at 2 uM at holding potential of -100 mV in presence of hypatone-A by whole cell electrophysiological method.
The target in experiment [5] is Voltage-dependent T-type calcium channel subunit alpha-1G (Homo sapiens, UniProt O43497). In words: Agonist activity at Cav3.1 (unknown origin) expressed in HEK293T cells assessed as increase in current amplitude at holding potential of -100 mV by whole cell patch-clamp electrophysiological method.
Experiment [6] is filed under the species Mus musculus. In words: Agonist activity at mouse Cav3.1 R1715H mutant expressed in HEK293T cells assessed as shift in voltage dependence of activation at 10 uM at holding potential of -100 mV by whole cell electrophysiological method.
For experiment [7], the species on record is Mus musculus. In words: Agonist activity at mouse Cav3.1 R1715H mutant expressed in HEK293T cells assessed as change in half-maximal activation potential at 10 uM at holding potential of -100 mV by whole cell electrophysiological method (reference value: -38 +/- 4.3 mV).
For experiment [8], the target named is T-type calcium channel alpha 1G subunit (Mus musculus) (UniProt Q27YN9). Nature of the experiment: Agonist activity at mouse Cav3.1 expressed in HEK293T cells assessed as half-maximal activation potential at 5 uM at holding potential of -100 mV by whole cell electrophysiological method (reference value: -44 +/- 2.8 mV).
Experiment [9] shares this target. Nature of the experiment: Agonist activity at mouse Cav3.1 expressed in HEK293T cells assessed as change in slope factor at 5 uM at holding potential of -100 mV by whole cell electrophysiological method.
The species entered for experiment [10] is Mus musculus. Nature of the experiment: Agonist activity at mouse Cav3.1 R1715H mutant expressed in HEK293T cells assessed as normalized window current at 10 uM at holding potential of -100 mV by whole cell electrophysiological method.
Experiment [11] deals with T-type calcium channel alpha 1G subunit (Mus musculus) (UniProt Q27YN9). Nature of the experiment: Agonist activity at mouse Cav3.1 expressed in HEK293T cells assessed as increase in current amplitude at 5 uM at holding potential of -100 mV measured after 12 to 14 secs by whole cell electrophysiological method.
Experiment [12] has the same target. Nature of the experiment: Agonist activity at mouse Cav3.1 expressed in HEK293T cells assessed as increase in current amplitude at 3 to 30 uM at holding potential of -100 mV incubated prior to compound washout by whole cell electrophysiological method.
Experiment [13] shares this target. Nature of the experiment: Agonist activity at mouse Cav3.1 expressed in HEK293T cells assessed as increase in current amplitude at 300 uM at holding potential of -100 mV measured up to 150 millisecs in presence of LVGCC blocker Ni2+ by whole cell electrophysiological method.
Experiment [14] addresses T1, T-type calcium channel alpha 1G subunit. Nature of the experiment: Agonist activity at mouse Cav3.1 expressed in HEK293T cells assessed as increase in current amplitude at holding potential of -100 mV by whole cell electrophysiological method.
The species entered for experiment [15] is Mus musculus. In words: Antagonist activity at mouse Cav3.1 R1715H mutant expressed in HEK293T cells assessed as change in time constant of inactivation at 10 uM at holding potential of -100 mV by whole cell electrophysiological method.
The species named for experiment [16] is Mus musculus. In words: Agonist activity at mouse Cav3.1 R1715H mutant expressed in HEK293T cells assessed as change in time constant of activation at 10 uM at holding potential of -100 mV by whole cell electrophysiological method.
The species named for experiment [17] is Mus musculus. In words: Antagonist activity at mouse Cav3.1 R1715H mutant expressed in HEK293T cells assessed as depolarization of action potential at 10 uM at holding potential of -100 mV by whole cell electrophysiological method.
For experiment [18], the species on record is Mus musculus. In words: Agonist activity at mouse Cav3.1 R1715H mutant expressed in HEK293T cells assessed as change in slope factor at 10 uM at holding potential of -100 mV by whole cell electrophysiological method.
Experiment [19] in a line: Agonist activity at mouse Cav3.1 R1715H mutant expressed in HEK293T cells assessed as increase in current amplitude at holding potential of -100 mV by whole cell electrophysiological method. The note with it: HEK-293T.
Experiment [20] deals with T-type calcium channel alpha 1G subunit (Mus musculus) (UniProt Q27YN9). In words: Agonist activity at mouse Cav3.1 expressed in HEK293T cells assessed as increase in window current at 5 uM at holding potential of -100 mV by whole cell electrophysiological method.
Experiment [21] has the same target. Nature of the experiment: Agonist activity at mouse Cav3.1 expressed in HEK293T cells assessed as change in time constant of activation at 5 uM at holding potential of -100 mV by whole cell electrophysiological method.
The target is the same in experiment [22]. In words: Antagonist activity at mouse Cav3.1 expressed in HEK293T cells assessed as change in time constant of inactivation at 5 uM at holding potential of -100 mV by whole cell electrophysiological method.
Experiment [23] has the same target. Nature of the experiment: Antagonist activity at mouse Cav3.1 expressed in HEK293T cells assessed as increase in half-maximal activation potential at 5 uM at holding potential of -100 mV incubated prior to compound washout by whole cell electrophysiological method.
The target is the same in experiment [24]. Nature of the experiment: Agonist activity at mouse Cav3.1 expressed in HEK293T cells assessed as decrease in half-maximal activation potential at 5 uM at holding potential of -100 mV incubated prior to compound washout by whole cell electrophysiological method.
For experiment [25] the target is unchanged. In words: Antagonist activity at mouse Cav3.1 expressed in HEK293T cells assessed as half-maximal inactivation potential at 5 uM at holding potential of -100 mV by whole cell electrophysiological method (reference value: -70.8 +/- 3 mV).
The target is the same in experiment [26]. Nature of the experiment: Antagonist activity at mouse Cav3.1 expressed in HEK293T cells assessed as change in slope factor at 5 uM at holding potential of -100 mV by whole cell electrophysiological method.
The species named for experiment [27] is Mus musculus. In words: Agonist activity at mouse Cav3.1 R1715H mutant expressed in HEK293T cells assessed as increase in 200 ms ramp from -100 to -40 mV after 100 ms hyperpolarization of -100 mV evoked peak of low threshold Ca2+ spike at 10 uM at -60 mV holding potential by whole cell electrophysiological method relative to control.
Experiment [28] deals with T-type calcium channel alpha 1G subunit (Mus musculus) (UniProt Q27YN9). In words: Agonist activity at mouse Cav3.1 expressed in HEK293T cells assessed as increase in current amplitude at 5 uM at holding potential of -100 mV in presence of hypatone-B by whole cell electrophysiological method.

Activity calls are given as the source filed them.

T1 sequence (Q27YN9 whole entry): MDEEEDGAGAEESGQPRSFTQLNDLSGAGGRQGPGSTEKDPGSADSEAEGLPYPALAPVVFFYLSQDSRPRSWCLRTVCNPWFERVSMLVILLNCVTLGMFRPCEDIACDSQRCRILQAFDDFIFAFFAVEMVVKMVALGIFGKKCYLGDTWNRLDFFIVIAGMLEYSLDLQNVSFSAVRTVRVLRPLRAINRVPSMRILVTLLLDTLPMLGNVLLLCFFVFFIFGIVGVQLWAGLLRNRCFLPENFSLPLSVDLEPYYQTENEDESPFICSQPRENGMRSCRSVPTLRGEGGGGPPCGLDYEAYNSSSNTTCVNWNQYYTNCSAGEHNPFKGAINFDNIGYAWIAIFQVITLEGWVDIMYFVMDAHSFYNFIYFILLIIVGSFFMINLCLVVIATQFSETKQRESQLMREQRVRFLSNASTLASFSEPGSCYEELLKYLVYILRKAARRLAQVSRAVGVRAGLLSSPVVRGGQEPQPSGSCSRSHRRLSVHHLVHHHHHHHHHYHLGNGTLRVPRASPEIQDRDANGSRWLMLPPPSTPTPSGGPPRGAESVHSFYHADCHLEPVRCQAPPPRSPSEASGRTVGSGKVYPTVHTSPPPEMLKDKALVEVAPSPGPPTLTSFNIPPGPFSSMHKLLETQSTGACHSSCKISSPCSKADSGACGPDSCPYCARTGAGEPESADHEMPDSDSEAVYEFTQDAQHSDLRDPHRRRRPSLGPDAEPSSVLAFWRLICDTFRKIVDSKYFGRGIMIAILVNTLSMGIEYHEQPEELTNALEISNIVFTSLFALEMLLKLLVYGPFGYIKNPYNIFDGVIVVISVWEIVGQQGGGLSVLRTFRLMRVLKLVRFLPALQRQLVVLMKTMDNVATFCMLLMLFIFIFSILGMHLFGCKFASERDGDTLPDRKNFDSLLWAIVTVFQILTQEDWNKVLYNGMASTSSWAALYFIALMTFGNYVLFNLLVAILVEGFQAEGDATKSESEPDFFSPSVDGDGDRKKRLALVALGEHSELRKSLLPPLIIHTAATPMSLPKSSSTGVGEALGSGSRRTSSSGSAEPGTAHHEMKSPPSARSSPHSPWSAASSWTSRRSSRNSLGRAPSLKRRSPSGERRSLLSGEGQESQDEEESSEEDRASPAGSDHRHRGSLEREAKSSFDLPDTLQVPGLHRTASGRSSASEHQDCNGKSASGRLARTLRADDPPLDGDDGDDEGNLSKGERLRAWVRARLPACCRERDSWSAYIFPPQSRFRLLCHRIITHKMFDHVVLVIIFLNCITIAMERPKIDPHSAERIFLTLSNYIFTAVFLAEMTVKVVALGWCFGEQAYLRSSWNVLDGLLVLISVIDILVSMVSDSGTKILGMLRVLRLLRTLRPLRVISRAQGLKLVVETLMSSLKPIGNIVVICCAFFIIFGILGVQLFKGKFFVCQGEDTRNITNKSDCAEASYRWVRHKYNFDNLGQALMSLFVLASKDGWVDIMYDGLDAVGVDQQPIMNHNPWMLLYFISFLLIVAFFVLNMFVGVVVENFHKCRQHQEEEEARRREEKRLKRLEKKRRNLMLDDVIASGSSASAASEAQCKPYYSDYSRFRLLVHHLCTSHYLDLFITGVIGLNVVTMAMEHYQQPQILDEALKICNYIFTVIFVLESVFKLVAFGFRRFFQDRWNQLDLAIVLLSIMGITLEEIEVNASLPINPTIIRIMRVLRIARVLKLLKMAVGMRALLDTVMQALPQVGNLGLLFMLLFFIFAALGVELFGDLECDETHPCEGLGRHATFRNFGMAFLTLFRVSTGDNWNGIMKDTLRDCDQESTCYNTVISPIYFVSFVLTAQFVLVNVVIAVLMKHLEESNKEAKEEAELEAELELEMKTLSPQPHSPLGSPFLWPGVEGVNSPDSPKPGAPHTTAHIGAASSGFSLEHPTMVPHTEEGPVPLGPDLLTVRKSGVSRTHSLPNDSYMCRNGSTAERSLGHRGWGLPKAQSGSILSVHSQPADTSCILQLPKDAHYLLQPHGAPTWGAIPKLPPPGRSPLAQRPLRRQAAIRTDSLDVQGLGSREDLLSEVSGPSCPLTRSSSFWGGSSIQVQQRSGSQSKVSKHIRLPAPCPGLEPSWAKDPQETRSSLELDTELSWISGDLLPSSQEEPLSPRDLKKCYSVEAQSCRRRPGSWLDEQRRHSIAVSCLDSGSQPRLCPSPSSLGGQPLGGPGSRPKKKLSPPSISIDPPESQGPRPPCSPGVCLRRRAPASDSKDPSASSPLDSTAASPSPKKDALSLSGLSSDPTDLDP
Sequence of T-type calcium channel alpha 1G subunit (Mus musculus) (Q27YN9 as listed by the source): as the sequence (Q27YN9 whole entry) above
Sequence of Voltage-dependent T-type calcium channel subunit alpha-1G (O43497 whole entry): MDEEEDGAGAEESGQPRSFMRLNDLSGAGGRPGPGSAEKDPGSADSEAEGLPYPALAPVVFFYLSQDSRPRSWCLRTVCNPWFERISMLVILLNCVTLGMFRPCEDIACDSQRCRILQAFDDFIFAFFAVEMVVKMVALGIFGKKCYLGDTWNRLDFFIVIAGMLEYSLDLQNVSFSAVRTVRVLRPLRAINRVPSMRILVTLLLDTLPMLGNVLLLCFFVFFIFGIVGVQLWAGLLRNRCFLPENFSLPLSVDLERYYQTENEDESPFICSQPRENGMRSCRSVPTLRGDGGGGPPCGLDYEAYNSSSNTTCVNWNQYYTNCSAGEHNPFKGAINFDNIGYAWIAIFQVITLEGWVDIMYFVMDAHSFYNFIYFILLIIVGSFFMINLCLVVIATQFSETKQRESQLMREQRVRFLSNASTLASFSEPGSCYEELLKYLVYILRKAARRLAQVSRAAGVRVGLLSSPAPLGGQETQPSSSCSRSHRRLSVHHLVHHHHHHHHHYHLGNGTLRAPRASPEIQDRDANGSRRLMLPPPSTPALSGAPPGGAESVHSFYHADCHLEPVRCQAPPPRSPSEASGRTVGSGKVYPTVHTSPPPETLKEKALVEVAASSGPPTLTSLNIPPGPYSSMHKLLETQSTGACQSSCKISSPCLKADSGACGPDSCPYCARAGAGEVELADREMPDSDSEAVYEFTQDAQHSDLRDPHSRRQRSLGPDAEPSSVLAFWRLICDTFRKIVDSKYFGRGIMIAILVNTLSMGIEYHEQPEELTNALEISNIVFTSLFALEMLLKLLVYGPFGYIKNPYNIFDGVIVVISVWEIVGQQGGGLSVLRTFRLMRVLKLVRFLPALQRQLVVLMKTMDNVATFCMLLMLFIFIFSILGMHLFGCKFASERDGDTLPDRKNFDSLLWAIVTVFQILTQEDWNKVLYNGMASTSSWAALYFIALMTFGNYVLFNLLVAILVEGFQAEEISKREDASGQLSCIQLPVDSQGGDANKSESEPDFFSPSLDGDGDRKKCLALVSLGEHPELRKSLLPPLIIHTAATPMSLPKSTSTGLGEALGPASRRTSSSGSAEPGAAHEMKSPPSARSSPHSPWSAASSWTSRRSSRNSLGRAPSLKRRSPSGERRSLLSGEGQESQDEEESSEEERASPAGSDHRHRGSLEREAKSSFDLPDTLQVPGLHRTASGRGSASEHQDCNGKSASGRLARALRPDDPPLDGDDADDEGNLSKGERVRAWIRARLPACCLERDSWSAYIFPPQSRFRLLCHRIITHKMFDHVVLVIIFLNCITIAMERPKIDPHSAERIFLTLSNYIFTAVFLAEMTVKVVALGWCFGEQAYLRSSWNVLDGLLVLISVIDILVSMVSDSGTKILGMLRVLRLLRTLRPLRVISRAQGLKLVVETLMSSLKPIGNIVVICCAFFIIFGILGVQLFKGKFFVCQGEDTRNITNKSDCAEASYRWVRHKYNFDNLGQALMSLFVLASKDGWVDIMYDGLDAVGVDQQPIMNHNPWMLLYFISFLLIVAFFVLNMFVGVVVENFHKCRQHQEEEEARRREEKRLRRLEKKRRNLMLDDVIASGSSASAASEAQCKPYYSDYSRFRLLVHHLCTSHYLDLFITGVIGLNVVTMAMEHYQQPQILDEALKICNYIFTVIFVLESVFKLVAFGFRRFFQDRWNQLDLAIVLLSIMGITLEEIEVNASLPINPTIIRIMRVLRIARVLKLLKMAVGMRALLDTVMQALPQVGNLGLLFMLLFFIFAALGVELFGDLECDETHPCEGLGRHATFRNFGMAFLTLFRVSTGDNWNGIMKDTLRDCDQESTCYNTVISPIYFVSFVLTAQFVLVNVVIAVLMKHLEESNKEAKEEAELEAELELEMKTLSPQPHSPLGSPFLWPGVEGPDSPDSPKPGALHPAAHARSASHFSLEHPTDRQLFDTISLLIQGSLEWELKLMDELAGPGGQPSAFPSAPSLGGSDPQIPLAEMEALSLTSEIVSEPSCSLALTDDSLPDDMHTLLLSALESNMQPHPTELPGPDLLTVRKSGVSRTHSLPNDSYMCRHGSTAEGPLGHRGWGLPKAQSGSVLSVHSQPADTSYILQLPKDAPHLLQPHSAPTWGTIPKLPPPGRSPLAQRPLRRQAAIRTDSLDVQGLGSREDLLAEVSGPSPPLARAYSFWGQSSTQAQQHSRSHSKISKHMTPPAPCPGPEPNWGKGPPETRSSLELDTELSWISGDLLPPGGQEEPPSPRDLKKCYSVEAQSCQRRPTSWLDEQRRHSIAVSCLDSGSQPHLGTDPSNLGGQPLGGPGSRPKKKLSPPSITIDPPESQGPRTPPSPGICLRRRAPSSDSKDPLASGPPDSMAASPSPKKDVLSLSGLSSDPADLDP

With `C=C(C)[C@H]1CC[C@@](C)(O)[C@@H](C2=C(O)C(CC=C(C)C)(CC=C(C)C)C(=O)C(C(=O)c3ccccc3)=C2O)C1`, the inhibition entry in [1] was “Dose-dependent effect”. Moreover, the IC50 in [2] amounted to 2.3 µM. Besides, the inhibition result in [3] and in [4] was “Active” in each case.
Take `CC(C)C1=C/C(=C2\C(=O)C=C3C(C)(C)CCC[C@@]32C)OC1=O`: the EC50 in experiment [5] was 12.5 µM.
Turning to `CC(C)=CCC1(CC=C(C)C)C(=O)C(C(=O)c2ccccc2)=C2O[C@]3(C)CC[C@H]4C[C@@H]3[C@]2(C1=O)C4(C)C`, the outcome (in the experiment listed under Mus musculus [6]; in [9]; in experiment [12]; in experiment [13]; in the experiment filed under Mus musculus [15]; in the experiment filed under Mus musculus [16]) was inactive. Moreover, the result (in the experiment listed under Mus musculus [17]; in the experiment listed under Mus musculus [18]; in [21]; in experiment [22]; in [23]; in [24]) was inactive. Besides, in experiment [26], the result was inactive. The V1/2 in the experiment filed under Mus musculus [7] is -43.8 mV; in [8] it was -47.6 mV; in experiment [25], -66.5 mV. Besides, the outcome (in the experiment filed under Mus musculus [10]; in experiment [11]; in [20]; in experiment [28]) was Active. In addition, the EC50 is 3.8 µM in experiment [14] and 9.6 µM in experiment [19]. In addition, in the experiment listed under Mus musculus [27], the Activity was determined as 26.7%.
Regarding `C=C(C)[C@H]1CC[C@@](C)(O)[C@@H](C2=C(O)C(CC=C(C)C)(CC=C(C)C)C(=O)C(C(=O)C(C)CC)=C2O)C1` (some centres undefined), the inhibition entry in [1] is “Dose-dependent effect”. In [2], the IC50 was determined as 0.19 µM. Further, the inhibition result in [3] is “Active”.
`C=C(C)[C@H]1CC[C@@](C)(O)[C@@H](C2=C(O)C(CC=C(C)C)(CC=C(C)C)C(=O)C(C(=O)C(C)C)=C2O)C1`: in experiment [1], the inhibition entry was “Dose-dependent effect”. Moreover, in experiment [2], the IC50 turned out to be 3.5 µM. Also, in experiment [3], the inhibition result was “Active”.
